Results taken from patent US11851696B2, “Microorganisms and process for producing glycolic acid from pentoses and hexoses” (Institut National Des Sciences Appliquées De Toulouse, priority 2018, dated 2023).

Tests used:
[1] = system: fructose-6-phosphate aldolase (FSA); conditions: aldolytic activity on D-arabinose-5-phosphate vs fructose-6-phosphate; cited from earlier work
[2] = molecular target: T1, E. coli K12 MG1655 aldehyde dehydrogenase (glycolaldehyde dehydrogenase, AldA), polyhistidine-tagged (aldA-His), wild type, SEQ ID NO: 4 (Escherichia coli, UniProt P25553); assay: AldA (aldehyde dehydrogenase) activity on glycolaldehyde, NADH at 340 nm; assay type: biochemical
T1 sequence (P25553 1-479): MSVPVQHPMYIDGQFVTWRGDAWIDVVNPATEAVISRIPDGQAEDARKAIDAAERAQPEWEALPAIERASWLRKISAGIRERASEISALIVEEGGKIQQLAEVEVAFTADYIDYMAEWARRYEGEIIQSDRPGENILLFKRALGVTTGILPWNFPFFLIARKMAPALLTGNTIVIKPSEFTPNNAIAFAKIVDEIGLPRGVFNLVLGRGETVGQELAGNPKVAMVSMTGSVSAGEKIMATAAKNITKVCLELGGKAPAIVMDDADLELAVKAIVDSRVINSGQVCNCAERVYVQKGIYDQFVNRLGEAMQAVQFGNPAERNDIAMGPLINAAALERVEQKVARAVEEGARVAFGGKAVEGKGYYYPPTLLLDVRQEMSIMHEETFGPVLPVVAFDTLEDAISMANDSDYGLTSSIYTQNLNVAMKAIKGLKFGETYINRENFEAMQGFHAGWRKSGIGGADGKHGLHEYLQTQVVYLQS
Description: To construct a system in vitro, the inventors have cloned the ORFs (“Open Reading Frames”) of the xylose isomerase (XylA), xylulokinase (XylB), arabinose isomerase (AraA), ribulose kinase (AraB), L-ribulose-5-phosphate 4-epimerase (AraD), ribulose-5-phosphate-3-epimerase (RPE), D-arabinose-5-phosphate isomerase (KdsD), fructose-6-phosphate aldolase (FSA corresponding to FSAA such as previously defined) and aldehyde dehydrogenase (AdA) of E. coli K12 MG1655 with a polyhistidine tag for a facilitated purification. […] The E. coli genomic DNA which served as on template is that of the strain K12 MG1655.
A pre-culture in a LB (for “Luria-Bertani”) medium added with the antibiotic kanamycin is made overnight at 37° C. The pre-culture is used to seed a fresh culture of 200 mL of LB-Kanamycin at an optical density at 600 nm (OD600) of 0.1 (37° C., 200 rpm). When the OD600 is between 0.6 and 0.8, the expression of the protein of interest is induced by adding finally 1 mM IPTG. The proteins are expressed overnight at 16° C. The cells are collected as 50 ml fractions and centrifuged at 4 800 rpm for 15 min at 4° C. The cell pellets are preserved at −20° C. […]
Measurement of the aldehyde dehydrogenase (AldA) activity: this activity has been measured in the presence of 5 mM glycoaldehyde, 3 mM NAD^+ and 3 mM ATP. […]

[3] = substrate: O=P(O)(O)OC[C@H]1OC(O)[C@@H](O)[C@@H]1O; assay: FSA (fructose-6P aldolase) activity on D-arabinose-5P, coupled to AldA or to TPI and G3PDH, NADH at 340 nm; assay type: biochemical, Escherichia coli K12 MG1655; conditions: other: substrate D-arabinose-5P, 100 mM Tris, pH 7.5, 10 mM MgCl2, 37° C., coupled to AldA (2 mM NAD+) or TPI/G3PDH (0.4 mM NADH)
Description: To construct a system in vitro, the inventors have cloned the ORFs (“Open Reading Frames”) of the xylose isomerase (XylA), xylulokinase (XylB), arabinose isomerase (AraA), ribulose kinase (AraB), L-ribulose-5-phosphate 4-epimerase (AraD), ribulose-5-phosphate-3-epimerase (RPE), D-arabinose-5-phosphate isomerase (KdsD), fructose-6-phosphate aldolase (FSA corresponding to FSAA such as previously defined) and aldehyde dehydrogenase (AdA) of E. coli K12 MG1655 with a polyhistidine tag for a facilitated purification. The oligonucleotides used for amplifying ORFS of the E. coli enzymes are listed in Table 3 below, the sequences SEQ ID NO: making reference to the appended sequence listing. The E. coli genomic DNA which served as on template is that of the strain K12 MG1655.
The plasmids for the expression of the C-terminal polyhistidine tagged proteins XylA, XylB, AraA, AraB, AraD, AraB, Rpe, KdsD, FSA, AdA have been constructed by HiFi Assembly® (NEB) with pET28a as a receiving vector. pET28a has been linearised beforehand with the restriction enzymes HindIII and BamHI (NEB) (Table 4). The E. coli strain NEB5®, derived from DH5 alpha, has been used for cloning and storing the different plasmids.
All the proteins expressed are soluble and have been produced from the expression vector pET28a transformed in an E. coli strain BL21 (DE3). […]

[4] = substrate: O=CCO; assay: purified protein, by the assay type; conditions: other: substrate glycolaldehyde, 100 mM Tris, pH 7.5, 10 mM MgCl2, 37° C., 3 mM NAD+, 3 mM ATP

O=P(O)(O)OC[C@H]1OC(O)[C@@H](O)[C@@H]1O (stereo partly drawn) [D-arabinose-5P, D-arabinose-5-phosphate]
affinity (times higher than for fructose-6-phosphate) [1]: 10 times

O=CCO [glycolaldehyde]
Vmax ([2]; substrate glycolaldehyde (5 mM glycoaldehyde in method), 100 mM Tris, pH 7.5, 10 mM MgCl2, 37° C., 3 mM NAD+, 3 mM ATP): 1.16 ± 0.31 U mg^−1
Vmax/Km ([2]; substrate glycolaldehyde, pH 7.5, 37° C.): 5 552 .10^−6 min^−1 mg^−1

B1: E. coli K12 MG1655 fructose-6-phosphate aldolase (FSA, FSAA), polyhistidine-tagged (FSA-His), wild type, SEQ ID NO: 2 (Escherichia coli K-12) (protein)
chain: MELYLDTSDVVAVKALSRIFPLAGVTTNPSIIAAGKKPLDVVLPQLHEAMGGQGRLFAQVMATTAEGMVNDALKLRSIIADIVVKVPVTAEGLAAIKMLKAEGIPTLGTAVYGAAQGLLSALAGAEYVAPYVNRIDAQGGSGIQTVTDLHQLLKMHAPQAKVLAASFKTPRQALDCLLAGCESITLPLDVAQQMISYPAVDAAVAKFEQDWQGAFGRTSI
Km [3]: 652 ± 150 µM
Vmax [3]: 0.26 µmol/min/mg

B2: E. coli K12 MG1655 aldehyde dehydrogenase (glycolaldehyde dehydrogenase, AldA), polyhistidine-tagged (aldA-His), wild type, SEQ ID NO: 4 (Escherichia coli K-12) (protein)
chain: MSVPVQHPMYIDGQFVTWRGDAWIDVVNPATEAVISRIPDGQAEDARKAIDAAERAQPEWEALPAIERASWLRKISAGIRERASEISALIVEEGGKIQQLAEVEVAFTADYIDYMAEWARRYEGEIIQSDRPGENILLFKRALGVTTGILPWNFPFFLIARKMAPALLTGNTIVIKPSEFTPNNAIAFAKIVDEIGLPRGVFNLVLGRGETVGQELAGNPKVAMVSMTGSVSAGEKIMATAAKNITKVCLELGGKAPAIVMDDADLELAVKAIVDSRVINSGQVCNCAERVYVQKGIYDQFVNRLGEAMQAVQFGNPAERNDIAMGPLINAAALERVEQKVARAVEEGARVAFGGKAVEGKGYYYPPTLLLDVRQEMSIMHEETFGPVLPVVAFDTLEDAISMANDSDYGLTSSIYTQNLNVAMKAIKGLKFGETYINRENFEAMQGFHAGWRKSGIGGADGKHGLHEYLQTQVVYLQS
Km [4]: 210 ± 50 µM
